{"source": "patent US9585933B2", "about": "“Therapeutic use of peptide inhibitors of NADPH oxidase; aerosolization as a delivery mechanism” (University of Pittsburgh—Of the Commonwealth System of …, priority 2011, dated 2017)", "target": "T1, Nox4 oxidase (COS-Nox4 lysate: hNox4, p22phox) (Homo sapiens, UniProt Q9NPH5)", "T1 construct": "expressed in transfected cells; host or cells: COS-22 cells (COS 7 with p22phox), stably transfected; cell lysate used", "T1 sequence (Q9NPH5 1-578)": "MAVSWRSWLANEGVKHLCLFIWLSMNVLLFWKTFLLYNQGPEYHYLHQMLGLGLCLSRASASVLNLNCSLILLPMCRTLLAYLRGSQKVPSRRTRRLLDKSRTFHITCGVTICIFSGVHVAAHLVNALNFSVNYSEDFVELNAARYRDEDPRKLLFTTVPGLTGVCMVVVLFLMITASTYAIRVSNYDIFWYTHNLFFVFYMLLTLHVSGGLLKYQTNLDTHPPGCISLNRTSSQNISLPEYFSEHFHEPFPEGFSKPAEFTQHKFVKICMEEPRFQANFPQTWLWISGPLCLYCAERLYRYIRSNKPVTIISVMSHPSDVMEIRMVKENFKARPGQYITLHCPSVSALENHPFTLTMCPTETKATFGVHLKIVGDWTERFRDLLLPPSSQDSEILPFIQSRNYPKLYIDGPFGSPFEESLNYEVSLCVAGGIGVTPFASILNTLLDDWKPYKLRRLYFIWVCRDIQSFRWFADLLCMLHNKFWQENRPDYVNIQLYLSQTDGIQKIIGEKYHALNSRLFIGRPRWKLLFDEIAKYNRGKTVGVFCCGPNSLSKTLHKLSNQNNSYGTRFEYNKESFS", "T1 sequence (P13498 2-195 partner limits assumed)": "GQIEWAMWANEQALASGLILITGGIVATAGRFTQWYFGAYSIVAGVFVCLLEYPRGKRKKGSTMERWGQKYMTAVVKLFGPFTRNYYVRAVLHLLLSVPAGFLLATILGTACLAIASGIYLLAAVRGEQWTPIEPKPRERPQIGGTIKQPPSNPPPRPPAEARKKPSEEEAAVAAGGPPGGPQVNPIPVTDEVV", "experiment": "Amplex Red assay, H2O2 production in COS-Nox4 lysates", "assay_type": "biochemical", "conditions": "for rate of H2O2 production, Amplex red oxidation: 0 μM control 80.4±3.1", "protocol": "To test this hypothesis, the inhibitory activity of Nox2ds was assessed in cell-free assays using reconstituted systems expressing either Nox1, 2 or 4 oxidase. Nox 2 oxidase was recapitulated by stably transfecting COS 7 cells with Nox2, p22phox, p47phox, and p67phox (aka COS-Nox2). Nox1 oxidase was obtained by transfecting COS 7 cells with Nox1, p22phox, NOXO1 and NOXA1 (COS-Nox1), and Nox 4 oxidase was regenerated by transfection of COS 7 cells with Nox4 and p22phox. […] Our new data support selectivity of Nox2ds peptide in differentiating the contribution of Nox2 vs. Nox1 and Nox4 NADPH oxidase and its potential clinical use in ameliorating cardiopulmonary diseases.\nCell transfection was carried out using Lipofectamine LTX and Plus reagent (Invitrogen), according to the manufacturer's instructions. COS-22 cells were transiently cotransfected with pcDNA 3.1-hNox1, pCMVsport 6-hNOXA1, and pcDNA3.1-hNoxO1 (COS-Nox1/NOXO1/NOXA1 cells). Cells were used 24 h after transfection. For stable transfection of Nox4, COS-22 cells were transfected with pcDNA3.1/Hygro-hNox4 (COS-Nox4 cells). COS-Nox4 cells were selected in complete medium supplemented with 0.2 mg/ml hygromycin B and 1.8 mg/ml G418. Stable transfectants were maintained in culture under the same conditions. Adherent cells were harvested by incubating with 0.05% trypsin/EDTA for 5 min at 37° C. After addition of DMEM/10% FBS to neutralize the trypsin, the cells were pelleted by centrifugation at 1000 g for 5 min at 4° C. and used for the experiments.\nHydrogen peroxide (H2O2) generation was quantified in COS-Nox4 cell lysates by Amplex Red. H2O2-producing activity was quantified in […] using Amplex red. Briefly, COS-Nox4 cells (5×10^7 cells/nil) were disrupted in ice-cold disruption buffer (PBS containing 0.1 mM EDTA, 10% glycerol, protease inhibitor cocktail, and 0.1 mM PMSF) by freeze/thaw cycles as we described above. Incubation of COS-Nox4 cell lysate with Nox2ds was performed in assay buffer (25 mM Hepes, pH 7.4, containing 0.12 M NaCl, 3 mM KCl, 1 mM MgCl2, 0.1 mM Amplex red, and 0.32 U/ml HRP) for 5 min at room temperature on an orbital shaker (120 movements/min), before the addition of 36 μM NADPH, to initiate H2O2 production. […] Fluorescence measurements were made using a Biotek Synergy 4 hybrid multimode microplate reader with a 530/25-excitation and a 590/35-emission filter. A standard curve of known H2O2 concentrations was developed using the Amplex red assay (as per the manufacturer's instructions) and was used to quantify H2O2 production in the COS-Nox4 cell-free system. Nox4 activity was obtained by subtracting nontransfected COS-22 cell lysate activity from COS-Nox4 cell lysate activity. The reaction was monitored at room temperature for 10 min, and the emission increase was linear during this interval.\nH2O2 production was initiated by the addition of NADPH and measured by Amplex Red for 10 min.", "note": "Where no end group is shown, it is not given here.", "data": [{"substance": "CSTRVRRQL-NH2 [Nox2ds, CSTRVRRQL]", "values": [{"measurement": "inhibition of COS-Nox4 lysate H2O2 production (in words)", "value": "did not inhibit"}, {"measurement": "rate of H2O2 production, Amplex red oxidation", "setting": "0.1 μM peptide", "value": "74.3±2.1 nmol H2O2/min/10^7 cell lysate equivalents"}, {"measurement": "rate of H2O2 production, Amplex red oxidation", "setting": "0.3 μM peptide", "value": "74.1±5.9 nmol H2O2/min/10^7 cell lysate equivalents"}, {"measurement": "rate of H2O2 production, Amplex red oxidation", "setting": "1 μM peptide", "value": "82.3±3.4 nmol H2O2/min/10^7 cell lysate equivalents"}, {"measurement": "rate of H2O2 production, Amplex red oxidation", "setting": "3 μM peptide", "value": "83.3±1.6 nmol H2O2/min/10^7 cell lysate equivalents"}]}]}
